# Measured values taken from patent US9376442B2, “Methylpyrrolopyrimidinecarboxamides” (Takeda GmbH, priority 2009, dated 2016).
# Molecular target: T1, PDE5A1 (Homo sapiens, UniProt O76074)
# T1 construct: from tissue; host or cells: human platelets from fresh donor blood (10,000 x g supernatant of sonicated lysate)
# Experiment: Inhibition of type 5 phosphodiesterase (PDE5) activity, modified SPA test with human platelet lysate
# Format: biochemical
# Details: 0.5 μM cGMP, read-out: PDE5A1 inhibitory values [measured as −log IC50 (mol/l)] (converted)
# Method: Method for Measuring Inhibition of the Type 5 Phosphodiesterase (PDE5) Activity:
# As a source for human PDE5, platelets are used. For that purpose, 150 ml fresh blood from human donors anticoagulated with citrate [final concentration 0.3% (w/v)] is centrifuged at 200 g for 10 min to obtain the so-called platelet-rich-plasma (PRP) as a supernatant. 1/10 volume of ACD solution (85 mM Na3-citrate, 111 mM D-glucose, 71 mM citric acid, pH 4.4) is added to 9/10 volume of PRP. After centrifugation (1,400 g, 10 min) the cell pellet is resuspended in 3 ml homogenization buffer (NaCl 140 mM, KCl 3.8 mM, EGTA (ethylene glycol tetraacetic acid) 1 mM, MgCl2 1 mM, Tris-HCl 20 mM, beta-mercaptoethanol 1 mM, pH 8.2) plus protease-inhibitor mix giving rise to the final concentrations of 0.5 mM Pefablock (Roche), 10 μM Leupeptin, 5 μM Trypsininhibitor, 2 mM Benzamidin and 10 μM Pepstatin A. The suspension is sonified and thereafter centrifuged for 15 min at 10,000 g. The resulting supernatant (platelet lysate) is used for enzymatic testings.
# PDE5A1 activity is inhibited by the compounds of the present subject matter in a modified SPA (scintillation proximity assay) test, supplied by Amersham Biosciences (see procedural instructions “phosphodiesterase [3H]cAMP SPA enzyme assay, code TRKQ 7090”), carried out in 96-well microtitre plates (MTP's). The test volume is 100 μl and contains 20 mM Tris buffer (pH 7.4), 0.1 mg of BSA (bovine serum albumin)/ml, 5 mM Mg^2+, 1 μM motapizone, 10 nM PDE2 inhibitor 2-(3,4-dimethoxybenzyl)-7-[(1R,2R)-2-hydroxy-1-(2-phenylethyl)propyl]-5-methylimidazo[5,1-f][1,2,4]triazin-4(3H)-one, 0.5 μM cGMP (cyclic guanosine monophosphate) (including about 50,000 cpm of [3H]cGMP as a tracer), 1 μl of the respective compound dilution in dimethylsulfoxide (DMSO) and sufficient PDE5-containing platelet lysat (10,000×g supernatant, see above) to ensure that 10-20 wt % of the cGMP is converted under the said experimental conditions. […] After a preincubation of 5 min at 37° C., the reaction is started by adding the substrate (cGMP) and the assay is incubated for a further 15 min; after that, it is stopped by adding SPA beads (50 μl). In accordance with the manufacturer's instructions, the SPA beads had previously been resuspended in water, but are then diluted 1:3 (v/v) in water; the diluted solution also contains 3 mM […] (IBMX) to ensure a complete PDE activity stop. After the beads have been sedimented (>30 min), the MTP's are analyzed in commercially available luminescence detection devices. The corresponding IC50 values of the compounds for the inhibition of PDE activity are determined from the concentration-effect curves by means of non-linear regression.
row,IC50,SMILES
1,< 1 nM,"CCOC(=O)N[C@H]1CC[C@H](NC(=O)c2c(C)[nH]c3c(-c4c(OCC5CC5)ccc5c4OCO5)ncnc23)CC1 [Example E8, Ethyl {trans-4-[({4-[5-(cyclopropylmethoxy)-1,3-benzodioxol-4-yl]-6-methyl-5H-pyrrolo[3,2-d]pyrimidin-7-yl}carbonyl)amino]cyclohexyl}carbamate]"
2,< 1 nM,"CCC(=O)N1CCC(NC(=O)c2c(C)[nH]c3c(-c4cc(C(C)=O)ccc4OCC4CC4)ncnc23)CC1 [Example E164, 4-[5-Acetyl-2-(cyclopropylmethoxy)phenyl]-6-methyl-N-(1-propanoylpiperidin-4-yl)-5H-pyrrolo[3,2-d]pyrimidine-7-carboxamide]"
3,< 1 nM,"CC(=O)N1CCC(NC(=O)c2c(C)[nH]c3c(-c4c(OCC5CC5)ccc5c4OCO5)ncnc23)CC1 [Example E1, N-(1-Acetylpiperidin-4-yl)-4-[5-(cyclopropylmethoxy)-1,3-benzodioxol-4-yl]-6-methyl-5H-pyrrolo[3,2-d]pyrimidine-7-carboxamide]"
4,< 1 nM,"Cc1[nH]c2c(-c3c(OCC4CC4)ccc4c3OCO4)ncnc2c1C(=O)NC1CCN(C(=O)[C@H](C)O)CC1 [Example F2, 4-[5-(Cyclopropylmethoxy)-1,3-benzodioxol-4-yl]-N-{1-[(2S)-2-hydroxypropanoyl]piperidin-4-yl}-6-methyl-5H-pyrrolo[3,2-d]pyrimidine-7-carboxamide]"
5,1 to 10 nM,"CC(=O)N1CC[C@@H](NC(=O)c2c(C)[nH]c3c(-c4cc(F)ccc4OCC4CC4)ncnc23)C1 [Example E46, N-[(3R)-1-acetylpyrrolidin-3-yl]-4-[2-(cyclopropylmethoxy)-5-fluorophenyl]-6-methyl-5H-pyrrolo[3,2-d]pyrimidine-7-carboxamide]"
6,< 1 nM,"CCC(=O)N1CC[C@@H](NC(=O)c2c(C)[nH]c3c(-c4cc(OC)c(F)cc4OCC4CC4)ncnc23)C1 [Example E180, 4-[2-(Cyclopropylmethoxy)-4-fluoro-5-methoxyphenyl]-6-methyl-N-[(3R)-1-propionylpyrrolidin-3-yl]-5H-pyrrolo[3,2-d]pyrimidine-7-carboxamide]"
7,< 1 nM,"CCC(=O)N1C[C@@H](O)[C@H](NC(=O)c2c(C)[nH]c3c(-c4c(OCC5CC5)ccc5c4OCO5)ncnc23)C1 (relative stereo) [Example E17, 4-[5-(Cyclopropylmethoxy)-1,3-benzodioxol-4-yl]-N-[(3R*,4R*)-4-hydroxy-1-propionylpyrrolidin-3-yl]-6-methyl-5H-pyrrolo[3,2-d]pyrimidine-7-carboxamide]"
8,< 1 nM,"COCC(=O)N[C@H]1CC[C@H](NC(=O)c2c(C)[nH]c3c(-c4cc(C)c(F)cc4OCC4CC4)ncnc23)CC1 [Example E124, 4-[2-(Cyclopropylmethoxy)-4-fluoro-5-methylphenyl]-N-{trans-4-[(methoxyacetyl)amino]cyclohexyl}-6-methyl-5H-pyrrolo[3,2-d]pyrimidine-7-carboxamide]"
9,< 1 nM,"CCC(=O)N[C@H]1CC[C@@H](NC(=O)c2c(C)[nH]c3c(-c4ccc(F)cc4OCC4CC4)ncnc23)CC1 [Example E26, 4-[2-(Cyclopropylmethoxy)-4-fluorophenyl]-6-methyl-N-[cis-4-(propionylamino)cyclohexyl]-5H-pyrrolo[3,2-d]pyrimidine-7-carboxamide]"
10,< 1 nM,"COc1ccc(-c2ncnc3c(C(=O)NC4CN(C(=O)C(C)O)CC4O)c(C)[nH]c23)c(OCC2CC2)c1 (mixture of isomers) [Example F40, Diastereomeric mixture of 4-[2-(cyclopropylmethoxy)-4-methoxyphenyl]-N{(3R,4R)-4-hydroxy-1-[(2S)-2-hydroxypropanoyl]pyrrolidin-3-yl}-6-methyl-5H-pyrrolo[3,2-d]pyrimidine-7-carboxamide and 4-[2-(cyclopropylmethoxy)-4-methoxyphenyl]-N-{(3S,4S)-4-hydroxy-1-[(2S)-2-hydroxypropanoyl]pyrrolidin-3-yl}-6-methyl-5H-pyrrolo[3,2-d]pyrimidine-7-carboxamide]"
